# Read-outs that look alike come from different tables or passages of the source.
# What was measured:
# Phi6 [1] = settings: in-line continuous flow, 1 M acetic acid added at 0.75 mL/min to 1 mL/min feed
# Description: This representative example describes the use of a continuous flow system to carry out low pH virus inactivation.
# A system consisting of a main feed pump, an acid addition pump, and a base addition pump was used to inactivate virus under continuous flow conditions. A mAb solution was spiked with Phi6 and was connected to the main feed pump inlet. The Phi6 target spike level was 1×10^8 pfu/mL. […] The feed flow rate was set to 1 mL/min. Acid was added into the main stream at a flow rate of 0.75 mL/min. The fluid then passed through a static mixer and a length of tubing designed to contain a particular volume (targeting a desired residence time). Different lengths of tubing were used to contain the required volume for each target average residence time (1, 2, 3, 4, 5, 15 min) after accounting for the dead volume from the valves and pH probe between the acid addition point and the beginning of the incubation chamber. […] At the outlet of the incubation chamber, the material was neutralized by the addition of base into the main line at a flow rate of 0.4 mL/min. The fluid passed through another static mixer and then the neutralized samples were collected at the outlet and assayed for infectivity using the plaque assay. These experiments were carried out at room temperature, 22-25° C. Control samples were also assayed. For the control samples, the pH was maintained at the feed pH level but the samples were diluted similarly to the actual samples using the background buffer.
# [2] = system: xenotropic murine leukemia virus (XMuLV); settings: static, mAb 18 g/L; for Time to Complete Inactivation: XMuLV
# Description: The purpose of this study was to evaluate the virus inactivation kinetics of xenotropic murine leukemia virus (XMuLV, an enveloped virus commonly used for clearance studies of monoclonal antibody products, under low pH conditions. The objective was to determine the exposure time required for complete inactivation.
# Following confirmation of pH, the virus spike was added to the sample reservoir containing the mAb and vortexed to ensure a well-mixed system. The XMuLV target spike level was 1×10^7 TCID50/mL (TCID50=Tissue Culture Infection Dose) (4% spike v/v). Within 0.3 minutes of the virus addition, a 1 mL sample was removed and transferred to a tube containing a previously determined volume of 2 M Tris Base to neutralize (pH 6-8) the sample and quench the inactivation step. The tube was vortexed after the base addition. This process of removing and neutralizing a sample was repeated for each time point. These experiments were carried out at room temperature, 22-25° C. Control samples at the initial and final time points were also analyzed. For the control samples, the pH was maintained at the feed pH level but the samples were diluted similarly to the actual samples using the background buffer.
# The neutralized samples were assayed for infectivity using the cell-based TCID50 infectivity assay using PG4 indicator cells (Bolton G, Cabatingan M, Rubino M, et al. Normal-flow virus filtration:detection and assessment of the endpoint in bio-processing. Biotechnol Appl Biochem 2005; 42: 133-42). To mitigate cytotoxicity and quench the virus inactivation, samples were diluted 1:50 with ten-fold serial dilutions in cell culture media and then 100 μl aliquots of each dilution were added to a 96-well plate. Following incubation at 37° C. in 5% CO2 for 7 days, infected wells were visually assessed for cytopathic effect (CPE). Titers and LRVs were calculated using standard methods (ICH. Guidance on Viral Safety Evaluation of Biotechnology Products Derived From Cell Lines of Human or Animal Origin. In: Use ICoHoTRfRoPfH, ed. Geneva, Switzerland: ICH, 1998). To determine the LRV at each time point, the titer of the time point was subtracted from the titer of the closest control time point.
# Phi6 [3] = settings: static, pH 3.6 (8.7 M acetic acid), mAb 5 mg/mL, 22-25° C.
# Description: In this representative experiment, the purpose was to evaluate the inactivation kinetics of an enveloped bacteriophage virus (Phi6) at low pH conditions. The objective was to determine the exposure time required for complete inactivation.
# A monoclonal antibody (mAb) was purified by standard Protein A chromatography and prepared at a concentration of 5 mg/mL. […] Human serum albumin (HSA) (0.25% v/v) was added for Phi6 stability. Following confirmation of pH, the virus spike was added to the sample reservoir containing the mAb and vortexed to ensure a well-mixed system. The Phi6 target spike level was 1×10^7 pfu (plaque forming units)/mL. Within 0.3 minutes of the virus addition, a 1 mL sample was removed and transferred to a tube containing a previously determined volume of 2 M Tris Base, pH 10 to neutralize (pH 6-8) the sample and quench the inactivation step. The tube was vortexed after the base addition. This process of removing and neutralizing a sample was repeated for each time point. These experiments were carried out at room temperature, 22-25° C. Control samples at the initial and final time points were also analyzed. For the control samples, the pH was maintained at the feed pH level (pH 6.3) but the samples were diluted similarly to the actual samples using the background buffer at pH 6.3.
# Phi6 [4] = assay: Static detergent-based virus inactivation, plaque assay for infectivity; type: cell-based, bacteriophage virus
# Description: The purpose of this study was to examine detergent-based virus inactivation kinetics. In this representative experiment, two different concentrations (0.1% and 1.0% v/v) of a detergent, Triton X-100, were used to inactivate a bacteriophage virus, Phi6.
# The virus spike was added and vortexed to ensure a well-mixed system. […] Detergent was added to reach the desired concentrations of 0.1% and 1.0% v/v. At various time points, a sample was removed and quenched by adding it to buffer at a 1:1000 dilution ratio. The tubes were vortexed after the detergent addition.
compound,measurement,setting,value
CC(=O)O [acetic acid],Phi6 LRV,Phi6 [1]; average residence time 1 min,≥6.8
same,Phi6 LRV,Phi6 [1]; average residence time 2 min,≥6.8
same,Phi6 LRV,Phi6 [1]; average residence time 3 min,≥6.8
same,Phi6 LRV,Phi6 [1]; average residence time 4 min,≥6.8
same,Phi6 LRV,Phi6 [1]; average residence time 5 min,≥6.8
same,Phi6 LRV,Phi6 [1]; average residence time 15 min,≥6.8
same,Time to Complete Inactivation,[2]; pH 4.0 (8.7 M acetic acid),≤15 min
same,Time to Complete Inactivation,[2]; pH 4.2 (8.7 M acetic acid),≤30 min
same,XMuLV LRV,"[2]; pH 3.5 (8.7 M acetic acid), inactivation time 0.3 min",4.0
same,XMuLV LRV,"[2]; pH 3.5 (8.7 M acetic acid), inactivation time 1 min",≥5.4
same,XMuLV LRV,"[2]; pH 3.5 (8.7 M acetic acid), inactivation time 2 min",≥5.4
same,XMuLV LRV,"[2]; pH 3.5 (8.7 M acetic acid), inactivation time 3 min",≥5.4
same,XMuLV LRV,"[2]; pH 3.5 (8.7 M acetic acid), inactivation time 4 min",≥5.4
same,XMuLV LRV,"[2]; pH 3.5 (8.7 M acetic acid), inactivation time 5 min",≥5.5
same,XMuLV LRV,"[2]; pH 3.5 (8.7 M acetic acid), inactivation time 15 min",≥5.5
same,XMuLV LRV,"[2]; pH 3.5 (8.7 M acetic acid), inactivation time 30 min",≥5.5
same,XMuLV LRV,"[2]; pH 3.5 (8.7 M acetic acid), inactivation time 60 min",≥5.5
same,XMuLV LRV,"[2]; pH 3.7 (8.7 M acetic acid), inactivation time 0.3 min",3.6
same,XMuLV LRV,"[2]; pH 3.7 (8.7 M acetic acid), inactivation time 1 min",≥5.5
same,XMuLV LRV,"[2]; pH 3.7 (8.7 M acetic acid), inactivation time 2 min",≥5.5
same,XMuLV LRV,"[2]; pH 3.7 (8.7 M acetic acid), inactivation time 3 min",≥5.5
same,XMuLV LRV,"[2]; pH 3.7 (8.7 M acetic acid), inactivation time 4 min",≥5.5
same,XMuLV LRV,"[2]; pH 3.7 (8.7 M acetic acid), inactivation time 5 min",≥5.7
same,XMuLV LRV,"[2]; pH 3.7 (8.7 M acetic acid), inactivation time 15 min",≥5.7
same,XMuLV LRV,"[2]; pH 3.7 (8.7 M acetic acid), inactivation time 30 min",≥5.7
same,XMuLV LRV,"[2]; pH 3.7 (8.7 M acetic acid), inactivation time 60 min",≥5.7
same,XMuLV LRV,"[2]; pH 4.0 (8.7 M acetic acid), inactivation time 0.3 min",1.6
same,XMuLV LRV,"[2]; pH 4.0 (8.7 M acetic acid), inactivation time 1 min",4.7
same,XMuLV LRV,"[2]; pH 4.0 (8.7 M acetic acid), inactivation time 2 min",5.2
same,XMuLV LRV,"[2]; pH 4.0 (8.7 M acetic acid), inactivation time 3 min",5.3
same,XMuLV LRV,"[2]; pH 4.0 (8.7 M acetic acid), inactivation time 4 min",5.2
same,XMuLV LRV,"[2]; pH 4.0 (8.7 M acetic acid), inactivation time 5 min",5.6
same,XMuLV LRV,"[2]; pH 4.0 (8.7 M acetic acid), inactivation time 15 min",≥5.4
same,XMuLV LRV,"[2]; pH 4.0 (8.7 M acetic acid), inactivation time 30 min",≥5.4
same,XMuLV LRV,"[2]; pH 4.0 (8.7 M acetic acid), inactivation time 60 min",≥5.4
same,XMuLV LRV,"[2]; pH 4.2 (8.7 M acetic acid), inactivation time 0.3 min",1.5
same,XMuLV LRV,"[2]; pH 4.2 (8.7 M acetic acid), inactivation time 1 min",3.3
same,XMuLV LRV,"[2]; pH 4.2 (8.7 M acetic acid), inactivation time 2 min",3.5
same,XMuLV LRV,"[2]; pH 4.2 (8.7 M acetic acid), inactivation time 3 min",3.9
same,XMuLV LRV,"[2]; pH 4.2 (8.7 M acetic acid), inactivation time 4 min",4.0
same,XMuLV LRV,"[2]; pH 4.2 (8.7 M acetic acid), inactivation time 5 min",4.2
same,XMuLV LRV,"[2]; pH 4.2 (8.7 M acetic acid), inactivation time 15 min",4.6
same,XMuLV LRV,"[2]; pH 4.2 (8.7 M acetic acid), inactivation time 30 min",≥5.7
same,XMuLV LRV,"[2]; pH 4.2 (8.7 M acetic acid), inactivation time 60 min",≥5.7
same,Phi6 Log Reduction Values (LRV),Phi6 [3]; inactivation time 1 min,≥6.8
same,Phi6 Log Reduction Values (LRV),Phi6 [3]; inactivation time 2 min,≥6.8
same,Phi6 Log Reduction Values (LRV),Phi6 [3]; inactivation time 3 min,≥6.8
same,Phi6 Log Reduction Values (LRV),Phi6 [3]; inactivation time 4 min,≥6.8
same,Phi6 Log Reduction Values (LRV),Phi6 [3]; inactivation time 5 min,≥6.8
same,Phi6 Log Reduction Values (LRV),Phi6 [3]; inactivation time 15 min,≥6.8
Triton X-100,Phi6 LRV,"Phi6 [4]; 0.1% v/v Triton X-100, mAb 15 mg/mL, inactivation time 1 min",≥5.2
same,Phi6 LRV,"Phi6 [4]; 0.1% v/v Triton X-100, mAb 15 mg/mL, inactivation time 2 min",≥5.2
same,Phi6 LRV,"Phi6 [4]; 0.1% v/v Triton X-100, mAb 15 mg/mL, inactivation time 3 min",≥5.2
same,Phi6 LRV,"Phi6 [4]; 0.1% v/v Triton X-100, mAb 15 mg/mL, inactivation time 4 min",≥5.2
same,Phi6 LRV,"Phi6 [4]; 0.1% v/v Triton X-100, mAb 15 mg/mL, inactivation time 5 min",≥5.2
same,Phi6 LRV,"Phi6 [4]; 0.1% v/v Triton X-100, mAb 15 mg/mL, inactivation time 15 min",≥5.2
same,Phi6 LRV,"Phi6 [4]; 0.1% v/v Triton X-100, mAb 15 mg/mL, inactivation time 30 min",≥5.2
same,Phi6 LRV,"Phi6 [4]; 1.0% v/v Triton X-100, mAb 15 mg/mL, inactivation time 1 min",≥6.2
same,Phi6 LRV,"Phi6 [4]; 1.0% v/v Triton X-100, mAb 15 mg/mL, inactivation time 2 min",≥6.2
same,Phi6 LRV,"Phi6 [4]; 1.0% v/v Triton X-100, mAb 15 mg/mL, inactivation time 3 min",≥6.2
same,Phi6 LRV,"Phi6 [4]; 1.0% v/v Triton X-100, mAb 15 mg/mL, inactivation time 4 min",≥6.2
same,Phi6 LRV,"Phi6 [4]; 1.0% v/v Triton X-100, mAb 15 mg/mL, inactivation time 5 min",≥6.2
same,Phi6 LRV,"Phi6 [4]; 1.0% v/v Triton X-100, mAb 15 mg/mL, inactivation time 15 min",≥6.2
same,Phi6 LRV,"Phi6 [4]; 1.0% v/v Triton X-100, mAb 15 mg/mL, inactivation time 30 min",≥6.2

# From patent publication US11732003B2, “Mechanical method of maintaining narrow residence time distributions in continuous flow systems” (priority 2017, dated 2023)
